Measurements taken from patent US20240041951A1, “METHOD FOR IMPROVING PRODUCTIVITY IN LIVESTOCK AND/OR POULTRY AND METHOD FOR IMPROVING INTESTINAL FLORA IN LIVESTOCK AND/OR POULTRY” (Hayashibara Co., Ltd., priority 2020, published 2024).
Read-outs that look alike come from different tables or passages of the source. Marks after values point to notes of the source that are not given here.

Assays:
Format in all cases: in vivo, male Chunky broiler chickens
[1] = test system: bacteria belonging to the genus Lactobacillus; assay: Intestinal flora: number of Lactobacillus cells in ileum content of reared broiler chickens; conditions: ileum content at 24 days old
[2] = test system: Welch bacillus (Clostridium perfringens); conditions: ileum content at 24 days old, average of stocking densities 11 and 14 individuals/m^2, * = significant vs control (p<0.05)
[3] = Rearing test: body weight, weight gain, feed intake and feed conversion ratio; conditions: for Feed conversion ratio: feed intake/weight gain
[4] = Rearing test: uniformity of body weight (coefficient of variation); conditions: body weights of individual chickens at 42 days old; (standard deviation/average)×100
[5] = from 0 day old to 42 days old (entire rearing period)
[6] = from 0 day old to 42 days old (entire rearing period), listed as trehalose group
[7] = from 35 days old to 42 days old (finishing period)
[8] = from 35 days old to 42 days old (finishing period), listed as trehalose group

## OC[C@H]1O[C@H](O[C@H]2O[C@H](CO)[C@@H](O)[C@H](O)[C@H]2O)[C@H](O)[C@@H](O)[C@@H]1O [Trehalose group, α,α-trehalose]
[1]
  Number of microbial cells, Lactobacillus spp.: 10.2 × 10^7 cells/g
[1]; listed as trehalose group
  Number of microbial cells, Lactobacillus spp.: 10.2×10^7 cells/g
[2]
  Number of microbial cells, Clostridium perfringens: 0.37 × 10^2* cells/g
[2]; listed as trehalose group
  Number of microbial cells, Clostridium perfringens: 0.37×10^2 cells/g
[3]; 0 day old (start of rearing)
  Average body weight: 41 g
[3]; 35 days old
  Average body weight: 2621 g
[3]; 42 days old
  Average body weight: 3251 g
[3]; from 0 day old to 35 days old
  Feed intake: 3458 g
  Weight gain: 2580 g
  Feed conversion ratio: 1.340
[3]; [5]
  Feed intake: 4756 g
  Weight gain: 3210* g
  Feed conversion ratio: 1.482*
[3]; [6]
  Feed conversion ratio: 1.482
  Weight gain: 3210 g
[3]; [7]
  Feed intake: 1320 g
  Weight gain: 630* g
  Feed conversion ratio: 2.095*
[3]; [8]
  Feed conversion ratio: 2.095
  Weight gain: 630 g
[4]
  Coefficient of variation: 7.9%
